What was measured:
Format in all cases: physicochemical
[1] = Polarized light microscopy (PLM), crystal habit
Description: Crystal habits of zongertinib forms XXIV, XIX and XX have been elucidated using polarized light microscopy. Depending on the starting material, form XVIII can be obtained in different crystal shapes.

[2] = Thermal gravimetric analysis (TGA); conditions: ambient to 600° C., heating rate 20° C./min
Procedure: TGA was performed with a TA Instruments TGA 550. Samples (5 mg) were heated in aluminium pans with a sealed aluminium lid from ambient temperature to 600° C. at a heating rate of 20° C./min. Processing was completed using TRIOS software.

[3] = Excessive drying of form XXIV and/or form XIX; conditions: typically temperatures >50° C. under vacuum
Procedure: Form XVIII is formed upon excessive drying of form XXIV and/or form XIX (e.g. prepared according to any one of examples 1.1 to 1.4 herein). Typically, drying is performed at temperatures >50° C. under vacuum.

[4] = Form IV slurry experiments in aqueous organic solvents with heat-cool cycles, solids analyzed by XRPD; conditions: 20 to 50° C. heat-cool cycles
Procedure: Zongertinib form IV (e.g. prepared according to any one of the procedures of reference example 1.3) was slurried in different aqueous organic solvent systems (12V, composition according to table 1) at a temperature ranging from 20 to 50° C. using a magnetic stir bar. Heat-cool-cycles were conducted using automation available on the Junior robot and as per the below program: • 1. Set stirring to 350 rpm (by means of magnetic stir bars) • 2. Heat to 50° C. (10° C./minute) • 3. Hold at 50° C. for 150 minutes • 4. Cool to 20° C. (−1° C./minute) • 5. Hold at 20° C. for 120 minutes • 6. Heat to 50° C. (5° C./minute) • 7. Hold at 50° C. for 120 minutes • 8. Cool to 20° C. (−1° C./minute) • 9. Set stirring to 0 rpm • 10. Hold at 20° C. for 16 hrs
The solids were collected and analyzed by XRPD.
(§1) XRPD was performed with a Bruker D8 Discover X-ray diffractometer. The instrument detector allows for two-dimensional diffractograms to be acquired. Solid samples were placed on a zero-background diffraction plate. The results were processed using DIFFRAC.EVA software. The diffraction pattern was integrated from two-dimensional to one-dimensional. The Kα2 contribution was stripped, no smoothing or background correction was performed. A typical precision of the 2-Theta values is in the range of ±0.2° 2-Theta, preferably in the range of ±0.1° 2-Theta. Thus, a reflection that usually appears at 7.0 2-Theta for example can appear between 6.8° and 7.2° 2-Theta, preferably between 6.9° and 7.1° 2-Theta on most X-ray diffractometers under standard conditions.

[5] = Suspension of form IV and form III stirred at 35° C. for 18 hrs, solid analyzed by XRPD; conditions: mixture of form IV and form III
Procedure: (§2) A suspension of zongertinib form IV (e.g. prepared according to any one of the procedures of reference example 1.3) and zongertinib form III (e.g. prepared according to reference example 1.2) in 20V of 1:1 (vol:vol) IPAc/water was stirred using overhead agitation at 35° C. for 18 hrs. The solid was collected and analyzed by XRPD confirming receipt of form XX.
as §2, with “water” for “1:1 (vol:vol) IPAc/water”
as §1, with “Thus, a reflection that usually appears at 7.0 2-Theta for example can appear between 6.8° and 7.2° 2-Theta, preferably between 6.9° and 7.1° 2-Theta on most X-ray diffractometers under standard conditions.” left out

C=CC(=O)NC1CCN(c2ncc3ncnc(Nc4ccc(Oc5ccc6c(c5)ncn6C)c(C)c4)c3n2)CC1 [Form XIX, zongertinib]
Crystal Habit ([1]; listed as XIX): lath-shaped crystals
TGA sample decomposition start temperature ([2]; listed as form XIX): about 327 °C

C=CC(=O)NC1CCN(c2ncc3ncnc(Nc4ccc(Oc5ccc6c(c5)ncn6C)c(C)c4)c3n2)CC1 [Form XXIV, zongertinib]
Crystal Habit ([1]; listed as XXIV): plate-shaped and lath shaped crystals
TGA sample decomposition start temperature ([2]; listed as form XXIV): about 415 °C
Form obtained upon excessive drying [3]: Form XVIII

C=CC(=O)NC1CCN(c2ncc3ncnc(Nc4ccc(Oc5ccc6c(c5)ncn6C)c(C)c4)c3n2)CC1 [Form XX, zongertinib]
Crystal Habit ([1]; listed as XX): needle-shaped crystals
TGA sample decomposition start temperature ([2]; listed as form XX): about 393 °C

C=CC(=O)NC1CCN(c2ncc3ncnc(Nc4ccc(Oc5ccc6c(c5)ncn6C)c(C)c4)c3n2)CC1 [Form XVIII, zongertinib]
Crystal Habit ([1]; listed as XVIII (drying of XIX)): lath-shaped crystals
Crystal Habit ([1]; listed as XVIII (drying of XXIV)): plate-shaped and lath shaped crystals
TGA sample decomposition start temperature ([2]; listed as form XVIII): about 394 °C

C=CC(=O)NC1CCN(c2ncc3ncnc(Nc4ccc(Oc5ccc6c(c5)ncn6C)c(C)c4)c3n2)CC1 [Form IV, zongertinib]
XRPD results after slurry ([4]; 12V 1:1 (vol:vol) ACN:water): Form XIX
XRPD results after slurry ([4]; 12V 1:1 (vol:vol) EtOH:water): Form XIX
XRPD results after slurry ([4]; 12V 1:1 (vol:vol) IPAc:water): Form XXIV
XRPD results after slurry ([4]; 12V 2:1 (vol:vol) THF:water): Form XXIV
Solid form by XRPD after stirring suspension ([5]; 20V of 1:1 (vol:vol) IPAc/water): form XX
Solid form by XRPD after stirring suspension ([5]; 20V of water): form XX

Source: patent publication US20250376476A1, “Crystalline forms of a HER2 tyrosine kinase inhibitor” (Boehringer Ingelheim International GmbH, priority 2024, published 2025)
